Measurements taken from patent US9414590B2, “Chemical and biological agents for the control of molluscs” (priority 2009, dated 2016).
Where two headings read alike, the source gives them in different places.

Columns and labels:
quagga mussels [1] = assay: Mussel bioassay test (live mussel jar-test); assay type: in vivo, Dreissena bugensis; conditions: Dreissena rostriformis, 16 μg/ml
Protocol: Twenty freshly collected quagga mussels is placed in a jar containing 250 mL of de-chlorinated tap water at room temperature. Jars are kept at room temperature and connected into a manifold providing constant air supply through bubbling. Each test subject (HPLC fraction or peak) dissolved in DMSO is pipetted into jars separately at a concentration of 1-5 mg, and the mussels are incubated with the test subject for 24 hours. After the incubation period, water in each jar is discarded, and the mussels are rinsed with fresh water and transferred into open glass petri dishes for a 10-day observation period. Mussels are checked daily for mortality, and the dead mussels are removed and discarded. Each treatment is carried out in three replicates, and in the end of the 10-day incubation period, % mortality is calculated for each treatment.
The potency of compounds isolated from Pseudomonas cell culture is tested using procedures described above.

CL145A (ATCC 55799) = assay: Antibiotic resistance profile, discs on Mueller-Hinton Agar; assay type: cell-based, Pseudomonas protegens strain CL145A; conditions: for CL145A resistant or sensitive to the antibiotic: antibiotic disc, 72 hours incubation; for Suppresses growth of CL145A: 25° C., 72 hours
Protocol: One glycerol stock vial of CL145A was equally distributed onto Mueller-Hinton Agar plates (100 μl per plate) and spread on the plate using a sterile cell spreader. Antibiotic discs were then placed onto the plates along with a blank sterile disc. Plates were incubated at 25° C. in the dark for 72 hours.

quagga mussels [2] = assay: whole plant or invertebrate; conditions: Dreissena rostriformis
[3] = 24 hr, read-out: % mortality 24 hr
[4] = 48 hr, read-out: % mortality 48 hr
[5] = 72 hr, read-out: % mortality 72 hr
[6] = 96 hr, read-out: % mortality 96 hr
[7] = 24 h, read-out: Molluscicidal effect (mortality) 24 hr
[8] = 48 h, read-out: Molluscicidal effect (mortality) 48 hr
[9] = 72 h, read-out: Molluscicidal effect (mortality) 72 hr
[10] = 96 h, read-out: Molluscicidal effect (mortality) 96 hr

| Compound | CL145A resistant or sensitive to the antibiotic (CL145A (ATCC 55799)) | mortality at 11.1 µg/mL (quagga mussels [2]; [7]) | mortality at 11.1 µg/mL (quagga mussels [2]; [8]) | mortality at 11.1 µg/mL (quagga mussels [2]; [9]) | mortality at 11.1 µg/mL (quagga mussels [2]; [10]) | further results |
| --- | --- | --- | --- | --- | --- | --- |
| CCCCC/C=C/C(O)CCCCCCCCCC(=O)O (centres unmarked) [11-Hydroxy-12-ene-octadecanoic acid] | – | – | – | – | – | mortality at 16 µg/mL (quagga mussels [1]; [3]): 0%; mortality at 16 µg/mL (quagga mussels [1]; [4]): 20 ± 20%; mortality at 16 µg/mL (quagga mussels [1]; [5]): 33.3 ± 20.8%; mortality at 16 µg/mL (quagga mussels [1]; [6]): 40 ± 26.5% |
| CC1(C)S[C@@H]2[C@H](NC(=O)[C@H](N)c3ccccc3)C(=O)N2[C@H]1C(=O)O [Ampicillin] | resistant | – | – | – | – | Suppresses growth of CL145A (CL145A (ATCC 55799); disc 10 μg): No |
| CO/N=C(\C(=O)N[C@@H]1C(=O)N2C(C(=O)O)=C(COC(N)=O)CS[C@H]12)c1ccco1 [Cefuroxime] | resistant | – | – | – | – | Suppresses growth of CL145A (CL145A (ATCC 55799); disc 30 μg): No |
| O=C(N[C@H](CO)[C@H](O)c1ccc([N+](=O)[O-])cc1)C(Cl)Cl [Chloramphenicol] | resistant | – | – | – | – | Suppresses growth of CL145A (CL145A (ATCC 55799); disc 30 μg): No |
| CC[C@H]1OC(=O)[C@H](C)[C@@H](O[C@H]2C[C@@](C)(OC)[C@@H](O)[C@H](C)O2)[C@H](C)[C@@H](O[C@@H]2O[C@H](C)C[C@H](N(C)C)[C@H]2O)[C@](C)(O)C[C@@H](C)C(=O)[C@H](C)[C@@H](O)[C@]1(C)O [Erythromycin] | resistant | – | – | – | – | Suppresses growth of CL145A (CL145A (ATCC 55799); disc 15 μg): No |
| CCCCC/C=C/C(O)CCCCCCC1CCC(=O)O1 (centres unmarked) [Piliferolide A] | – | – | – | – | – | mortality at 16 µg/mL (quagga mussels [1]; [3]): 53.3 ± 15.3%; mortality at 16 µg/mL (quagga mussels [1]; [4]): 53.3 ± 15.3%; mortality at 16 µg/mL (quagga mussels [1]; [5]): 70 ± 10%; mortality at 16 µg/mL (quagga mussels [1]; [6]): 80 ± 10% |
| CCN1CCN(C(=O)N[C@@H](C(=O)N[C@@H]2C(=O)N3[C@@H]2SC(C)(C)[C@@H]3C(=O)O)c2ccccc2)C(=O)C1=O [Piperacillin] | sensitive | – | – | – | – | Suppresses growth of CL145A (CL145A (ATCC 55799); disc 100 μg): Yes |
| CCCCCCCCC1CCC(=O)O1 (centres unmarked) [SAR-001] | – | 86.7 ± 5.8% | 96.7 ± 5.8% | 96.7 ± 5.8% | 96.7 ± 5.8% | – |
| CCCCCCCC1CCOC1=O (centres unmarked) [SAR-002] | – | 30 ± 10% | 66.7 ± 15.3% | 73.3 ± 11.5% | 76.7 ± 15.3% | – |
| CCCCCCCCC1CCCC(=O)O1 (centres unmarked) [SAR-003] | – | 3.3 ± 5.7% | 10 ± 10% | 10 ± 10% | 10 ± 10% | – |
| CCCCCCCCCC1CCCC(=O)O1 (centres unmarked) [SAR-004] | – | 0% | 0% | 0% | 0% | – |
| CCCCCCCCCCCC(=O)O [SAR-005] | – | 0% | 0% | 0% | 0% | – |
| CCCCCCCCC(O)CCC(=O)O (centres unmarked) [SAR-006] | – | 0% | 0% | 0% | 0% | – |
| CCCCCCCCCC(=O)N1CCCC1 [SAR-007, N-(Decanoyl)pyrrolidine] | – | – | – | – | – | mortality at 11.1 µg/mL (quagga mussels [2]; 24 h, read-out: Potency toward quagga mussels (mortality) 24 hr): 35 ± 7%; mortality at 11.1 µg/mL (quagga mussels [2]; 48 h, read-out: Potency toward quagga mussels (mortality) 48 hr): 50 ± 14%; mortality at 11.1 µg/mL (quagga mussels [2]; 72 h, read-out: Potency toward quagga mussels (mortality) 72 hr): 55 ± 21%; mortality at 11.1 µg/mL (quagga mussels [2]; 96 h, read-out: Potency toward quagga mussels (mortality) 96 hr): 65 ± 21% |
| CCCCCC1CCC(=O)O1 (centres unmarked) [SAR-008] | – | 0% | 0% | 0% | 0% | – |
